Results published in PubChem BioAssay (NCI).
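GI50 marks 50% less growth. The concentration for full growth arrest is given as TGI.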

How the values were obtained:
Test in all cases: inhibition of tumour cell growth, NCI panel, 384-well format
[1] = tested on: UO-31 renal
[2] = tested on: UACC-62 melanoma
[3] = tested on: HOP-62 NSCLC
[4] = tested on: DU-145 prostate
[5] = tested on: MCF7 breast
[6] = tested on: NCI-H226 lung
[7] = tested on: SK-MEL-5 melanoma
[8] = tested on: PC-3 prostate
[9] = tested on: HOP-92 NSCLC
[10] = tested on: MALME-3M melanoma
[11] = tested on: SW-620 colon
[12] = tested on: SK-OV-3 ovarian
[13] = tested on: TK-10 renal
[14] = tested on: CCRF-CEM leukemia
[15] = tested on: SNB-75 CNS
[16] = tested on: NCI-H460 NSCLC
[17] = tested on: HT29 colon
[18] = tested on: COLO 205 colon
[19] = tested on: NCI-H322M lung
[20] = tested on: CAKI-1 renal
[21] = tested on: BT-549 breast
[22] = tested on: K-562 leukemia
[23] = tested on: IGROV1 ovarian
[24] = tested on: OVCAR-3 ovarian
[25] = tested on: SK-MEL-28 melanoma
[26] = tested on: ACHN renal
[27] = tested on: M14 melanoma
[28] = tested on: 786-0 renal
[29] = tested on: KM12 colon
[30] = tested on: T-47D breast
[31] = tested on: HCC-2998 colon
[32] = tested on: SN12C renal
[33] = tested on: EKVX NSCLC
[34] = tested on: SF-295 CNS
[35] = tested on: SF-539 CNS
[36] = tested on: NCI-H23 lung
[37] = tested on: OVCAR-8 ovarian
[38] = tested on: MOLT-4 leukemia
[39] = tested on: NCI-H522 lung
[40] = tested on: A549 NSCLC
[41] = tested on: HS 578T breast
[42] = tested on: U251 glioblastoma
[43] = tested on: SR leukemia
[44] = tested on: LOX IMVI melanoma
[45] = tested on: NCI/ADR-RES ovarian
[46] = tested on: MDA-MB-468 breast
[47] = tested on: RPMI-8226 leukemia
[48] = tested on: SNB-19 CNS
[49] = tested on: OVCAR-4 ovarian
[50] = tested on: MDA-MB-231 breast
[51] = tested on: OVCAR-5 ovarian
[52] = tested on: MDA-MB-435 melanoma
[53] = tested on: SF-268 CNS
[54] = tested on: UACC-257 melanoma
[55] = tested on: A498 renal
[56] = tested on: HCT-15 colon
[57] = tested on: RXF 393 renal
[58] = tested on: HL-60(TB) leukemia

O=C(Nc1cccc(Nc2ncc(Br)c(NCCc3cnc[nH]3)n2)c1)N1CCCC1
GI50 [1]: 26.6 µM | TGI [1]: > 100 µM | GI50 [2]: 1.69 µM | TGI [2]: 14.2 µM | GI50 [3]: 2.78 µM | TGI [3]: 12.4 µM | GI50 [4]: 5.13 µM | TGI [4]: 19.3 µM | GI50 [5]: 3.67 µM | TGI [5]: 19.9 µM | GI50 [6]: 0.873 µM | TGI [6]: 4.74 µM | GI50 [7]: 3.58 µM | TGI [7]: 14.6 µM | GI50 [8]: 4.38 µM | TGI [8]: 18.4 µM | GI50 [9]: 1.6 µM | TGI [9]: 6.13 µM | GI50 [10]: 4.16 µM | TGI [10]: 17.9 µM | GI50 [11]: 1.6 µM | TGI [11]: 5.1 µM | GI50 [12]: 4.21 µM | TGI [12]: 18.8 µM | GI50 [13]: 7.86 µM | TGI [13]: 23.8 µM | GI50 [14]: 0.19 µM | TGI [14]: 0.377 µM | GI50 [15]: 2 µM | TGI [15]: 8.78 µM | GI50 [16]: 2.96 µM | TGI [16]: 8.71 µM | GI50 [17]: 4.1 µM | TGI [17]: 18.5 µM | GI50 [18]: 0.273 µM | TGI [18]: 0.886 µM | GI50 [19]: 10.3 µM | TGI [19]: 22.3 µM | GI50 [20]: 3.62 µM | TGI [20]: 19.7 µM | GI50 [21]: 1.57 µM | TGI [21]: 5.23 µM | GI50 [22]: 2.05 µM | TGI [22]: 10.5 µM | GI50 [23]: 6.48 µM | TGI [23]: 21.1 µM | GI50 [24]: 2.72 µM | TGI [24]: 17.3 µM | GI50 [25]: 5.06 µM | TGI [25]: 18.7 µM | GI50 [26]: 12.8 µM | TGI [26]: 59.5 µM | GI50 [27]: 3.02 µM | TGI [27]: 12.9 µM | GI50 [28]: 5.36 µM | TGI [28]: 19.5 µM | GI50 [29]: 0.684 µM | TGI [29]: 10.6 µM | GI50 [30]: 4.37 µM | TGI [30]: 17.2 µM | GI50 [31]: 6.06 µM | TGI [31]: 19 µM | GI50 [32]: 1.48 µM | TGI [32]: 10.6 µM | GI50 [33]: 6.65 µM | TGI [33]: 27.3 µM | GI50 [34]: 3.77 µM | TGI [34]: 14.5 µM | GI50 [35]: 0.955 µM | TGI [35]: 4.06 µM | GI50 [36]: 2.31 µM | TGI [36]: 10.7 µM | GI50 [37]: 5.61 µM | TGI [37]: 18.9 µM | GI50 [38]: 0.202 µM | TGI [38]: 0.403 µM | GI50 [39]: 1.08 µM | TGI [39]: 4.86 µM | GI50 [40]: 6.32 µM | TGI [40]: > 100 µM | GI50 [41]: 1.44 µM | TGI [41]: 3.59 µM | GI50 [42]: 9.49 µM | TGI [42]: 79.1 µM | GI50 [43]: 0.18 µM | TGI [43]: 0.349 µM | GI50 [44]: 1.18 µM | TGI [44]: 2.8 µM | GI50 [45]: > 100 µM | TGI [45]: > 100 µM | GI50 [46]: 0.283 µM | TGI [46]: 0.631 µM | GI50 [47]: 1.45 µM | TGI [47]: 2.9 µM | GI50 [48]: 8.32 µM | TGI [48]: 46.8 µM | GI50 [49]: 1.13 µM | TGI [49]: 10.4 µM | GI50 [50]: 2.4 µM | TGI [50]: 12.7 µM | GI50 [51]: 4.3 µM | TGI [51]: 24.9 µM | GI50 [52]: 2.96 µM | TGI [52]: 16.5 µM | GI50 [53]: 1.92 µM | TGI [53]: 10.2 µM | GI50 [54]: 10.5 µM | TGI [54]: 22.4 µM | GI50 [55]: 4.58 µM | TGI [55]: 60.7 µM | GI50 [56]: 11.4 µM | TGI [56]: 25.6 µM | GI50 [57]: 6.04 µM | TGI [57]: 20.9 µM | GI50 [58]: 0.399 µM | TGI [58]: 1.94 µM
